The values below come from ChEMBL document CHEMBL4334438, “Discovery of novel glycogen synthase kinase-3α inhibitors: Structure-based virtual screening, preliminary SAR and biological evaluation for treatment of acute myeloid leukemia” (Eur J Med Chem, 2019).

Assay [1] concerns Tyrosine-protein kinase ABL1 (Homo sapiens), P00519 [M351T]. Put plainly: Inhibition of human ABL1 M351T mutant (27 to end residues) assessed as residual activity at 1 uM using EAIYAAPFAKKK as substrate incubated for 40 mins in presence of [gamma-33ATP] by scintillation counting based radiometry assay relative to control.
Assay [2] has as its target Activated CDC42 kinase 1 (Homo sapiens) (UniProt Q07912). Put plainly: Inhibition of human ACK1 (1 to 389 residues) assessed as residual activity at 1 uM using EFPIYDFLPAKKK as substrate incubated for 40 mins in presence of [gamma-33ATP] by scintillation counting based radiometry assay relative to control.
For assay [3], the species on record is Homo sapiens. The experiment in a line: Inhibition of recombinant full length human Aurora A I31F mutant assessed as residual activity at 1 uM using LRRASLG as substrate incubated for 40 mins in presence of [gamma-33ATP] by scintillation counting based radiometry assay relative to control.
The target of assay [4] is Tyrosine-protein kinase BTK (Homo sapiens) (UniProt Q06187). The experiment in a line: Inhibition of recombinant full length human BTK assessed as residual activity at 1 uM using KVEKIGEGTYGVV substrate incubated for 40 mins in presence of [gamma-33ATP] by scintillation counting based radiometry assay relative to control.
Assay [5] addresses Calcium/calmodulin-dependent protein kinase type 1 (Homo sapiens) (UniProt Q14012). Put plainly: Inhibition of recombinant human CaMKIalpha (2 to end residues) assessed as residual activity at 1 uM […] incubated for 40 mins in presence of [gamma-33ATP] by scintillation counting based radiometry assay relative to control.
Assay [6] deals with Insulin receptor (Homo sapiens) (UniProt P06213). Put plainly: Inhibition of human IR (1005 to 1310 residues) assessed as residual activity at 1 uM using KKSRGDYMTMQIG as substrate after 40 mins by [gamma-33ATP] radiometric assay relative to control.
Assay [7] addresses Mitogen-activated protein kinase 1 (Homo sapiens) (UniProt P28482). The experiment in a line: Inhibition of recombinant full length human MAPK1 assessed as residual activity at 1 uM using myelin basic protein as substrate incubated for 40 mins in presence of [gamma-33P]ATP by scintillation counting based radiometry assay relative to control.
Assay [8] has as its target Myosin light chain kinase, smooth muscle (Homo sapiens) (UniProt Q15746). Put plainly: Inhibition of recombinant human MLCK (1425 to 1771 residues) assessed as residual activity at 1 uM […] incubated for 40 mins in presence of [gamma-33ATP by scintillation counting based radiometry assay relative to control.
Assay [9] concerns the target Ribosomal protein S6 kinase alpha-5 (Homo sapiens) (UniProt O75582). Put plainly: Inhibition of recombinant human MSK1 (2 to end residues) assessed as residual activity at 1 uM using GRPRTSSFAEGKK as substrate measured after 40 mins in presence of [gamma33P]ATP by scintillation counting method relative to control.
In assay [10] the target is Serine/threonine-protein kinase 4 (Homo sapiens) (UniProt Q13043). Put plainly: Inhibition of recombinant full-length human MST1 assessed as residual activity at 1 uM using KKSRGDYMTMQIG as substrate measured after 40 mins in presence of [gamma33P]ATP by scintillation counting method relative to control.
Chain of Serine/threonine-protein kinase 4 (Homo sapiens) (Q13043 whole entry): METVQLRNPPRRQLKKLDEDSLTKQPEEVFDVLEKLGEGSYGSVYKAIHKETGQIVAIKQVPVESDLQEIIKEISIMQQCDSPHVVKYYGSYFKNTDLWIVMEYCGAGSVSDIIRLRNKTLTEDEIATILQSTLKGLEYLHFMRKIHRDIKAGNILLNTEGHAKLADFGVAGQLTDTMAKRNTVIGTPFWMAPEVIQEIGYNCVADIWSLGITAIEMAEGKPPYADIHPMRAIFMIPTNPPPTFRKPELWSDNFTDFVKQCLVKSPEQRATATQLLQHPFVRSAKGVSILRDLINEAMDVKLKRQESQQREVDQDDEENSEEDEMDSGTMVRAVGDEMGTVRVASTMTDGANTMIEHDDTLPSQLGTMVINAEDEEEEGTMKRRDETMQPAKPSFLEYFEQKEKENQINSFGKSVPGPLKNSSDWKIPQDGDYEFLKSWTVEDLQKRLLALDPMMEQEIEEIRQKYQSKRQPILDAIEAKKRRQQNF
Assay [11] has as its target Serine/threonine-protein kinase mTOR (Homo sapiens) (UniProt P42345). Put plainly: Inhibition of recombinant full-length human mTOR assessed as residual activity at 1 uM measured after 40 mins in presence of [gamma33P]ATP by scintillation counting method relative to control.
The target in assay [12] is [Pyruvate dehydrogenase (acetyl-transferring)] kinase isozyme 4, mitochondrial (Homo sapiens) (UniProt Q16654). The experiment in a line: Inhibition of recombinant human full length PDHK4 assessed as residual activity at 1 uM using KKKYHGHSMSDPGVSYRT as substrate measured after 40 mins in presence of [gamma33P]ATP by scintillation counting method relative to control.
Chain of [Pyruvate dehydrogenase (acetyl-transferring)] kinase isozyme 4, mitochondrial (Homo sapiens) (Q16654 whole entry, looked up): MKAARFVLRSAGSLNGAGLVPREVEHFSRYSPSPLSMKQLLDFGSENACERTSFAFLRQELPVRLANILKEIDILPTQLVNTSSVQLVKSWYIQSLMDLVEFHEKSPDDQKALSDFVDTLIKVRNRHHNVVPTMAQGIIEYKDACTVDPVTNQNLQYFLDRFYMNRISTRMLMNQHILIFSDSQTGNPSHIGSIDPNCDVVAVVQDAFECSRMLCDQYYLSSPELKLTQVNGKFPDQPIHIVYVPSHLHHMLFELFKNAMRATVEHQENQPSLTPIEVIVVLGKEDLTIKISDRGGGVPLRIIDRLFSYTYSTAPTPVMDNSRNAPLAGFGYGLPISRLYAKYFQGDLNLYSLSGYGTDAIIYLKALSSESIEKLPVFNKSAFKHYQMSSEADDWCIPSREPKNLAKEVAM

Assay [13] concerns the target 3-phosphoinositide-dependent protein kinase 1 (Homo sapiens) (UniProt O15530). The experiment in a line: Inhibition of recombinant human PDK1 (52 to end residues) assessed as residual activity at 1 uM using PDKtide as substrate measured after 40 mins in presence of [gamma33P]ATP by scintillation counting method relative to control.
Assay [14] has as its target Protein kinase C iota type (Homo sapiens) (UniProt P41743). The experiment in a line: Inhibition of recombinant full-length human PKCiota assessed as residual activity at 1 uM using ERMRPRKRQGSVRRRV as substrate incubated for 40 mins in presence of [gamma33P]ATP by scintillation counting based radiometry assay relative to control.
Assay [15] relates to Proto-oncogene tyrosine-protein kinase receptor Ret (Homo sapiens), P07949 [V804M]. The experiment in a line: Inhibition of recombinant human Ret V804M mutant (658 to end residues) assessed as residual activity at 1 uM using […] as substrate measured after 40 mins in presence of [gamma33P]ATP by scintillation counting method relative to control.
Assay [16] addresses Serine/threonine-protein kinase SIK3 (Homo sapiens) (UniProt Q9Y2K2). Put plainly: Inhibition of recombinant human SIK3 (1 to 307 residues) assessed as residual activity at 1 uM using KKKVSRSGLYRSPSMPENLNRPR as substrate measured after 40 mins in presence of [gamma33P]ATP by scintillation counting method relative to control.
For assay [17], the target named is Mitogen-activated protein kinase kinase kinase 7 (Homo sapiens) (UniProt O43318). The experiment in a line: Inhibition of human TAK1 (1 to 303 residues) assessed as residual activity at 1 uM using casein as substrate measured after 40 mins in presence of [gamma33P]ATP by scintillation counting method relative to control.
Assay [18] has as its target TRAF2 and NCK-interacting protein kinase (Homo sapiens) (UniProt Q9UKE5). Put plainly: Inhibition of human TNIK (1 to 367 residues) assessed as residual activity at 1 uM using RLGRDKYKTLRQIRQ as substrate measured after 40 mins in presence of [gamma33P]ATP by scintillation counting method relative to control.
In assay [19] the target is Serine/threonine-protein kinase ULK1 (Homo sapiens) (UniProt O75385). The experiment in a line: Inhibition of human ULK1 (1 to 314 residues) assessed as residual activity at 1 uM using casein as substrate measured after 40 mins in presence of [gamma33P]ATP by scintillation counting method relative to control.
For assay [20], the target named is Death-associated protein kinase 3 (Homo sapiens) (UniProt O43293). Put plainly: Inhibition of human ZIPK (1 to 290 residues) assessed as residual activity at 1 uM using KKLNRTLSFAEPG as substrate measured after 40 mins in presence of [gamma33P]ATP by scintillation counting method relative to control.
Chain of Death-associated protein kinase 3 (Homo sapiens) (O43293 whole entry, looked up, the tested form may be a part): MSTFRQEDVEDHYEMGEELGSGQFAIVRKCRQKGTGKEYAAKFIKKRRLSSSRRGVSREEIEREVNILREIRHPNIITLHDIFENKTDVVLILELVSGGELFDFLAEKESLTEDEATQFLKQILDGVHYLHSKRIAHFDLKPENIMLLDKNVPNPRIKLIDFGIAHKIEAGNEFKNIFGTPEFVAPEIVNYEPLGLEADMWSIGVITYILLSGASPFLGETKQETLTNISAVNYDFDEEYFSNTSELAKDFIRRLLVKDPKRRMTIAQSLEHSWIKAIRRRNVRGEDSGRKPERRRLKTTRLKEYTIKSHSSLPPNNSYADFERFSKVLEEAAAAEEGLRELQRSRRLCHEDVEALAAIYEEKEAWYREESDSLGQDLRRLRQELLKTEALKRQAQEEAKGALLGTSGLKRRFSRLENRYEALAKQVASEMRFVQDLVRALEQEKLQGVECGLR
The species named for assay [21] is Homo sapiens. Put plainly: Inhibition of recombinant human full length PI3K p110alpha/p65alpha assessed as residual activity at 1 uM assessed as residual activity at 1 uM using phosphatidylinositol-4, 5-bisphosphate as substrate incubated for 40 mins in presence of [gamma33P]ATP by scintillation counting based radiometry assay relative to control.

Chain of Ribosomal protein S6 kinase alpha-5 (Homo sapiens) (O75582 whole entry, looked up): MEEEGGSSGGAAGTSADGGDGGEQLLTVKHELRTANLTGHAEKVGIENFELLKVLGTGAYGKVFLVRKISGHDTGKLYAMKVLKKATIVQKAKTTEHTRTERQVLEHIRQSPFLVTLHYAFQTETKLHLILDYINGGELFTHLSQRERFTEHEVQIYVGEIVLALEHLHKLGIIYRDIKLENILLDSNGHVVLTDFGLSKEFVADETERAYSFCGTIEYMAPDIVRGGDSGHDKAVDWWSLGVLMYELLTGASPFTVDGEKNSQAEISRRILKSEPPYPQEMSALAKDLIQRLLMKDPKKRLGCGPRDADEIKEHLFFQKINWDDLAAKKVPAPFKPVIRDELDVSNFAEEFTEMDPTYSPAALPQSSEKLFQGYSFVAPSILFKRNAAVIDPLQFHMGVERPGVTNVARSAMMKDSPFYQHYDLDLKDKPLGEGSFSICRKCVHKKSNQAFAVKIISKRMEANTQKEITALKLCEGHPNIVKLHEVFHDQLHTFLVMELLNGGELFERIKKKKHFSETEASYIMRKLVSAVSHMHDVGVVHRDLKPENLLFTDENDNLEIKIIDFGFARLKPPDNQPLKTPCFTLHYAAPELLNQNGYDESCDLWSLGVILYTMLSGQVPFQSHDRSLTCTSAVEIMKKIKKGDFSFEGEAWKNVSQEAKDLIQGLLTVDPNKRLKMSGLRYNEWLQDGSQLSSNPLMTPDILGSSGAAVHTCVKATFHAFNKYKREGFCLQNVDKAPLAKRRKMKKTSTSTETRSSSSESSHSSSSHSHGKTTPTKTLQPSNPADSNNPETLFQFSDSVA
Chain of Mitogen-activated protein kinase 1 (Homo sapiens) (P28482 whole entry, the tested form may be a part): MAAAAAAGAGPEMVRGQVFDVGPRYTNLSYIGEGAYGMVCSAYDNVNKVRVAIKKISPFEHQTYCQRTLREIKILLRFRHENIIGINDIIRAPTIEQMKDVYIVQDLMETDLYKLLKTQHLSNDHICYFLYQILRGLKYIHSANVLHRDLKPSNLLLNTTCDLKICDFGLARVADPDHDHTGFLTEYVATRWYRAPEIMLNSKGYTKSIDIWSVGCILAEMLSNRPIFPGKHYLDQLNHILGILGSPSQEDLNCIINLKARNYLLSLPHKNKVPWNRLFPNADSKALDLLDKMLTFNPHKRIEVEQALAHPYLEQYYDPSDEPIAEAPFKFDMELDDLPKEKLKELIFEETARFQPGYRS
Chain of Protein kinase C iota type (Homo sapiens) (P41743 whole entry): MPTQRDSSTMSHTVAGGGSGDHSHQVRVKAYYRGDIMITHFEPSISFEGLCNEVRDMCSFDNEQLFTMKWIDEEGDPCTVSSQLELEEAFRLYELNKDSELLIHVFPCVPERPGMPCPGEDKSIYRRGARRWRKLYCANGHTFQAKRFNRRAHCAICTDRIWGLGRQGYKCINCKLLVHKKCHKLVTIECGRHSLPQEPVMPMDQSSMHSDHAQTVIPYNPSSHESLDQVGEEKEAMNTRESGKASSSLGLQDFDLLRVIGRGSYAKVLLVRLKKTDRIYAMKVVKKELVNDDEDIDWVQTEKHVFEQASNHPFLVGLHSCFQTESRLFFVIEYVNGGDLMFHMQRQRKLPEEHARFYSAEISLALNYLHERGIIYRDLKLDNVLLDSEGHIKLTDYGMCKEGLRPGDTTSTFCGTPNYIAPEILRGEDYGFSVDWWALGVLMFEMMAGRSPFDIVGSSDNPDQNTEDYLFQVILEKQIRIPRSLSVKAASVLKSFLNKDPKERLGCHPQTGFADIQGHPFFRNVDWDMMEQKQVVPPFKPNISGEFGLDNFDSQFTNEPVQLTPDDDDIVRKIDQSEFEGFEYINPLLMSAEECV
Chain of 3-phosphoinositide-dependent protein kinase 1 (Homo sapiens) (O15530 whole entry): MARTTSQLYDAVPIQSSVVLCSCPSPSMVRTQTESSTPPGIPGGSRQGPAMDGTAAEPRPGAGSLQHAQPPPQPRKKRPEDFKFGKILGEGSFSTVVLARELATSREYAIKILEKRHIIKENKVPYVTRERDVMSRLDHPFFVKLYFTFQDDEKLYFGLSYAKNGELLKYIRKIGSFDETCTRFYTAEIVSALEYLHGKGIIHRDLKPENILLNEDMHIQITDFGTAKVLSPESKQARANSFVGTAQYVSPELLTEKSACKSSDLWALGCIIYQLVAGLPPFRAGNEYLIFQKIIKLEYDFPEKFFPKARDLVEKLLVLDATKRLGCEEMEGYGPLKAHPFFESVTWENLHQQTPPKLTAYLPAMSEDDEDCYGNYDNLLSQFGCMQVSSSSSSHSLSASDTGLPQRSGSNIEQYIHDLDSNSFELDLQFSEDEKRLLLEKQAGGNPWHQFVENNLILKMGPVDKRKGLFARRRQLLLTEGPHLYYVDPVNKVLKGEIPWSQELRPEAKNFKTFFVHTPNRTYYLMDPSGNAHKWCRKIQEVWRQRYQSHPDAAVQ
Chain of TRAF2 and NCK-interacting protein kinase (Homo sapiens) (Q9UKE5 whole entry, looked up, the tested form may be a part): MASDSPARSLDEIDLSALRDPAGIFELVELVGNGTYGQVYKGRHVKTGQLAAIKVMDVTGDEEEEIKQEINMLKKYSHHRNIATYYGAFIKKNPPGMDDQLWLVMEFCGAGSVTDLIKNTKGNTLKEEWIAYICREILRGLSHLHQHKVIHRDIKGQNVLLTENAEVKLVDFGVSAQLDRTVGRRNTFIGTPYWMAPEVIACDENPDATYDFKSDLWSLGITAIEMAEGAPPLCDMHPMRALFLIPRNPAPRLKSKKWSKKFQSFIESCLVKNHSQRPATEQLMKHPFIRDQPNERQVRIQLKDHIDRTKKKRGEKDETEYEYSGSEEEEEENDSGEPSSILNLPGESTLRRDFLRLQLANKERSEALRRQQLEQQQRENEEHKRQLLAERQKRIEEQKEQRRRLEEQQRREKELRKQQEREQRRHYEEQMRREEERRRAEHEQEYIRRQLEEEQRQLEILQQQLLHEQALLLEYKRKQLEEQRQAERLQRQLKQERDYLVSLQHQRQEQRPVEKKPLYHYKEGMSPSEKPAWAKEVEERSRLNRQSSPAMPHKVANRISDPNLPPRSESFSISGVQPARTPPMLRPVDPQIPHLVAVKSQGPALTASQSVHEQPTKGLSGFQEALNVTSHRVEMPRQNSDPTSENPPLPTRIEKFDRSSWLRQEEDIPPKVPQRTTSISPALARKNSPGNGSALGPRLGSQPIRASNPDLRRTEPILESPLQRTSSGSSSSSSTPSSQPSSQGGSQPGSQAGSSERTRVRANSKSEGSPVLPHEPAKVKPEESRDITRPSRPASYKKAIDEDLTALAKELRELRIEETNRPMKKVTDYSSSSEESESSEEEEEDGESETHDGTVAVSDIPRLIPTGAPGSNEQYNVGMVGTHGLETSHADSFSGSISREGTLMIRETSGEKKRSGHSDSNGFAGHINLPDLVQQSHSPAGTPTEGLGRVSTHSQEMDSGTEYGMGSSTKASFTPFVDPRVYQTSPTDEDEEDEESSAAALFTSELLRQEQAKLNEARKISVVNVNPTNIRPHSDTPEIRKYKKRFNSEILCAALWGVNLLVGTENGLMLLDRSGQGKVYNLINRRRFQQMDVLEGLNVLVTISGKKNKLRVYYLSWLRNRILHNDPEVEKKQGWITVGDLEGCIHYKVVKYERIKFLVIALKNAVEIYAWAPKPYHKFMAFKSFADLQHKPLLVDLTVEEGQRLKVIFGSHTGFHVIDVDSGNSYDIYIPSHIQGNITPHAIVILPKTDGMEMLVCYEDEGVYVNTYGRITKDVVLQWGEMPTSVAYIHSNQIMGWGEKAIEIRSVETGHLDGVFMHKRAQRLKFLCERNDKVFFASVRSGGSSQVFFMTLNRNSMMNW

Take `C=CCOC(=O)c1cc(-c2ccc(/C=C3/NC(=S)NC3=O)o2)ccc1Cl`: the Activity in [1] was 103%; in [2] it was 96%; in assay [3], 114%; in [4], 101%; in assay [5], 90%; in assay [6] it was 108%. The Activity is 106% in assay [7]; 89% in assay [8]; 100% in assay [9]; 103% in assay [10]; 88% in assay [11]; 100% in [12]. Also, the Activity in assay [13] was determined as 87%; in assay [14] it was 105%; in [15], 98%; in [16], 96%; in [17], 100%; in assay [18], 52%. In addition, the Activity amounted to 98% in assay [19], 96% in assay [20] and 85% in [21].

As to `N=C1NC(=O)/C(=C\c2ccc(-c3cccc([N+](=O)[O-])c3)o2)S1`, the Activity in assay [1] stood at 97%; in [2] it was 93%; in assay [3], 101%; in assay [4], 93%; in assay [5], 103%; in assay [6], 97%. The Activity amounted to 97% in assay [7]; 37% in assay [8]; 95% in [9]; 98% in assay [10]; 95% in assay [11]; 103% in assay [12]. Besides, the Activity in assay [13] was determined as 96%; in assay [14] it was 102%; in [15], 95%; in [16] it was 101%; in [17] it was 92%; in [18], 74%. Besides, the Activity in [19] was 98%; in assay [20], 93%; in assay [21], 100%.
